What was measured:
[1] = tested on: β-1,3-glucanase; experiment: β-1,3-glucanase elicitation in germinating mung beans after seed treatment (laminarin substrate); format: in vivo; settings: mung bean seeds, 0.5, 0.05 and 0.005 mg/seed; higher doses gave lower activities
Experimental: Enzyme activity measurements relate to the level of a given enzyme protein in the plant tissue. As an example of enhanced enzyme activity, β-1,3-glucanase was measured. The enzyme, β-1,3-glucanase, was assayed using laminarin (a soluble β-1,3-glucan) as substrate. Crude homogenates of the seedlings from treated seeds yielded the data in FIG. 1. Increased β-1,3-glucanase activity compared to controls (without seed treatment) was obtained in the micronutrient of the present invention treatments ten days following germination. Elicitation of mung beans seeds that were treated with the micronutrient of the present invention were compared to those treated with two types of elicitors. First, various concentrations of purified colloidal chitin/chitosan were used. […] Secondly, lower concentrations of the chitin oligosaccharide containing six glycan moieties, N-acetylchitohexaose were studied. The importance of the chitin oligosaccharide is that short chains of chitin have been found optimal in elicitation of many types of plants. […] Comparisons similar to those with chitin/chitosan could be made between the performance of 1 mg/seed micronutrient of the present invention and lower concentrations of the more optimal oligosaccharide.

[2] = format: physicochemical
Source text: Chitin/chitosan occurs naturally in a range from 100% chitin to 100% chitosan as a mixed polymer. […] Below is data showing that the micronutrient of the present invention outperforms chitin/chitosan as an elicitor of self-protecting enzymes.

Row | dose response relationship of β-1,3-glucanase specific activity [1] | water solubility [2] | Molecule
1 | negative |  | CC(=O)N[C@H]1[C@H](O[C@H]2[C@H](O)[C@@H](NC(C)=O)[C@H](O[C@H]3[C@H](O)[C@@H](NC(C)=O)C(O)O[C@@H]3CO)O[C@@H]2CO)O[C@H](CO)[C@@H](O[C@@H]2O[C@H](CO)[C@@H](O[C@@H]3O[C@H](CO)[C@@H](O[C@@H]4O[C@H](CO)[C@@H](O)[C@H](O)[C@H]4NC(C)=O)[C@H](O)[C@H]3NC(C)=O)[C@H](O)[C@H]2NC(C)=O)[C@@H]1O (some centres unmarked) [N-acetylchitohexaose]
2 |  | not water soluble | chitin/chitosan

Reference: patent publication US20080072494A1, “Micronutrient elicitor for treating nematodes in field crops” (priority 2006, published 2008)
